According to patent publication EP1621203A1, “RNAIII-inhibiting peptides for treating HIV infection” (Genoscience, priority 2004, dated 2006):
Where a name gives a salt, the structure may show the parent alone. Read-outs that look alike come from different tables or passages of the source. Where a SMILES comes first, the peptide text is derived from it. Bridges are numbered along the chain shown (N, C = ends). Roman numbers before positions name the chains, in order. Where no end group is shown, it is not given here. [ ]: non-standard residue; d: D form. Ava = NCCCCC(=O)O

Tests used:
HIV-1 NL4-3 [1] = format: cell-based; details: for IC50: NL4-3
Procedure: (§1) Cell cultures - Human peripheral blood lymphocytes (PBL) obtained from healthy HIV-seronegative donors were isolated by Ficoll-Hypaque gradient centrifugation and maintained in RPMI 1640 with ultraglutamine supplemented with […], 100 U/ml penicillin and […] streptamycin, and 10% heat-inactivated fetal calf serum. Cells were stimulated three days in the medium supplemented with 20 U/ml phytohemagglutinin P before evaluation of the antiviral activity. The human C8166 T-cell line was maintained in RPMI 1640 supplemented with 100 U/ml penicillin and […] streptamycin, and 10% heat-inactivated fetal calf serum.
(§2) Evaluation of antiviral activity on human immune cells - Samples of 3 x 10^5 human PBL in […] are preincubated in 96-well plates with various concentrations of each peptide at 37°C (incubator flushed with 5% CO2). After 1 hour incubation, […] of viral suspension (HIV-1 NL4-3 strain) was added at a multiplicity of infection of 1,000 TCID50 per ml. After three washings, cells were cultured in 24-well plates with 1 ml of RPMI 1640 in the continuous presence of the peptides. The cell culture medium was replaced at day 4 post-infection. During this assay, treatment with antiviral compounds was permanent (before, during and after infection). Toxicity was evaluated through daily cell counts and trypan-blue exclusion assays. Infection of human PBL was assessed daily by virus-induced cytopathic effects (syncytium formation) and after 14 days by quantification of p24 antigen in culture supernatants. Measurements of HIV-1 p24 concentrations in the culture supernatant were achieved by ELISA with a detection cut-off of 5 pg/ml (p24 HIV kit, Perkin-Elmer). Similar assays were performed with human C8166 T-cells. Data on PBL are the mean of two separate experiments realized in duplicate.

HIV-1 NL4-3 [2] = assay: Infection assay on human PBL with HIV-1 NL4-3 (syncytium formation, p24 antigen ELISA); format: cell-based; details: Human immunodeficiency virus 1, NL43, HIV-1 NL4-3 (1,000 TCID50), peptides continuously present; for IC50: read-out: IC50 (50% inhibitory concentration); for IC100: read-out: IC100 (100% inhibitory concentration)
Procedure: as §1, §2

Compound	IC50 (HIV-1 NL4-3 [1])	IC50 (HIV-1 NL4-3 [2])	IC100 (HIV-1 NL4-3 [2])	IC100 (100% inhibitory concentration) (HIV-1 NL4-3 [1]; human PBL, HIV-1 NL4-3 (1,000 TCID50), peptides continuously present)
C[C@@H](O)[C@H](NC(=O)[C@H](Cc1c[nH]c2ccccc12)NC(=O)[C@@H]1CCCN1C(=O)[C@H](CO)NC(=O)[C@@H](N)Cc1ccc(O)cc1)C(=O)N[C@@H](CC(N)=O)C(=O)N[C@@H](Cc1ccccc1)C(=O)NCCCC[C@H](NC(=O)[C@H](Cc1ccccc1)NC(=O)[C@H](CC(N)=O)NC(=O)[C@@H](NC(=O)[C@H](Cc1c[nH]c2ccccc12)NC(=O)[C@@H]1CCCN1C(=O)[C@H](CO)NC(=O)[C@@H](N)Cc1ccc(O)cc1)[C@@H](C)O)C(=O)NCCCC[C@H](NC(=O)[C@H](CCCCNC(=O)[C@H](Cc1ccccc1)NC(=O)[C@H](CC(N)=O)NC(=O)[C@@H](NC(=O)[C@H](Cc1c[nH]c2ccccc12)NC(=O)[C@@H]1CCCN1C(=O)[C@H](CO)NC(=O)[C@@H](N)Cc1ccc(O)cc1)[C@@H](C)O)NC(=O)[C@H](Cc1ccccc1)NC(=O)[C@H](CC(N)=O)NC(=O)[C@@H](NC(=O)[C@H](Cc1c[nH]c2ccccc12)NC(=O)[C@@H]1CCCN1C(=O)[C@H](CO)NC(=O)[C@@H](N)Cc1ccc(O)cc1)[C@@H](C)O)C(N)=O [(YSPWTNF)4-K2-K-NH2] (I: H-YSPWTNFKK-NH2 / II: H-YSPWTNFK / III: H-YSPWTNF / IV: H-YSPWTNF; amide I:8-IV:C, I:9-II:C, II:8-III:C)	1000 nM			
CC(C)(C)NC(=O)[C@@H]1CN(Cc2cccnc2)CCN1C[C@@H](O)C[C@@H](Cc1ccccc1)C(=O)N[C@H]1c2ccccc2C[C@H]1O [Crixivan®, Indinavir Sulfate]		70 nM	0.5 µM	
Nc1ccn([C@@H]2CS[C@H](CO)O2)c(=O)n1 [Epivir®, Lamivudine]		50 nM	0.5 µM	
C[C@@H](O)[C@H](NC(=O)[C@H](Cc1c[nH]c2ccccc12)NC(=O)[C@@H]1CCCN1C(=O)[C@H](CO)NC(=O)[C@@H](N)Cc1ccc(O)cc1)C(=O)N[C@@H](CC(N)=O)C(=O)N[C@@H](Cc1ccccc1)C(=O)NCCCCC(N)=O [YSPWTNF-valerate-NH2] (H-YSPWTNF[Ava]-NH2; N-terminus assumed)	500 nM			> 5 µM
C[C@H](O)[C@@H](NC(=O)[C@@H](Cc1c[nH]c2ccccc12)NC(=O)[C@H]1CCCN1C(=O)[C@@H](CO)NC(=O)[C@H](N)Cc1ccc(O)cc1)C(=O)N[C@H](CC(N)=O)C(=O)N[C@H](Cc1ccccc1)C(N)=O [YdSdPdWdTdNdFd-NH2] (H-[dY][dS][dP][dW][dT][dN][dF]-NH2)	5000 nM			
YSPITNF-NH2 [YSPITNF-NH2]	300 nM			
YSPWTNF-NH2 [YSPWTNF-NH2]	10 nM			
